# From patent US6673839B1, “Pharmaceutical compositions with antitumour activity” (Universita' Degli Studi di Catania, priority 1998, dated 2004)
# Structures can show the parent of a compound that is named as a salt.
# Legend:
# [1] = test system: Yoshida ascitogenic tumour; assay: Sprague-Dowley rats inoculated with Yoshida ascitogenic tumour, treatment; type: in vivo; parameters: surviving animals (mortality curve): unit not given here
# Procedure: Yoshida tumour is a transplantable, ascitogenic experimental tumour consisting of histiocyte-like immortalized cells.
# The tumour causes, on the average 7 days after the intraperitoneal inoculation in Sprague-Dowley rat, the formation of 120-150 ml of ascites which reappears 3-4 days after complete emptying of the peritoneal cavity and induces death of all the animals within 14-16 days after inoculation.
# 300 Sprague-Dowley rats (4 months old, mean weight: 200 g), under standard feeding and temperature conditions (25° C.), were inoculated with Yoshida tumour. The onset and evolution of the tumour were checked by daily observation and weighing. One week after the inoculation of the tumour, rats were divided in 6 groups and treated as follows:
# Group 1: 50 rats were subjected, on day 8 to 14, to daily emptying of 5 ml of ascitic fluid which was substituted with 5 ml of saline solution;
# Group 2: 50 rats were subjected, on day 8 to 14, to daily emptying of 5 ml of ascitic fluid which was substituted with 50 mg of L-aC diluted in 5 ml of saline solution;
# Group 3: 25 rats were subjected, on day 8 to 14, to daily emptying of 5 ml of ascitic fluid which was substituted with 80 mg of L-aC diluted in 5 ml of saline solution;
# Group 4: 25 rats were subjected, on day 8 to 14, to daily emptying of 5 ml of ascitic fluid which was substituted with 120 mg of L-aC diluted in 5 ml of saline solution;
# Group 5: 100 rats were subjected, on day 8 to 14, to evacuation on alternate days of 5 ml of ascitic fluid which was substituted with 25 mg of L-aC diluted in 5 ml of saline solution;
# Group 6: 50 rats were used as control and received no treatment.
# [2] = test system: breast (MCF 7) adenocarcinoma cell line; assay: Methylene blue assay on stabilized human neoplastic cell lines; type: cell-based
# Procedure: (§1) The effects of L-aC on stabilized human neoplastic cell lines were tested using the methylene blue assay.
# (§2) Acute promyelocytic leukemia cell line (HL60) and prostate (Du 145), colon (HT 29) and breast (MCF 7) adenocarcinoma cell lines have been used.
# (§3) Cell suspensions at concentrations of 10^5 cells/ml were prepared.
# (§4) 100 μl of the obtained cell suspension were inoculated on 96 well plates and incubated at 37° for 12 hours, to obtain cell adhesion to the plates. After 12 hours, L-aC was added at the concentrations of 0.2 mg/ml, 2 mg/ml, 20 mg/ml. […] Subsequently ethanol was removed and 1% methylene-blue was added for 2 hours. The dye was then removed and the plates were dried before adding 1M HCl.
# (§5) The cytotoxicity percentage was calculated using the following formula:
# (§6) (1−[O^D treated cells/O^D control cells)×100.
# (§7) The optical density was evaluated by Uniskan micro-spectrophotometer with 630 nmwavelength filter.
# (§8) The induction of apoptosis (appraised by Giemsa staining) was remarkable mainly on stabilized human neoplastic cell lines from breast and colon carcinomas.
# [3] = test system: colon (HT 29) adenocarcinoma cell line; assay: as above; type: cell-based
# Procedure: as §1, §2, §3, §4, §5, §6, §7, §8
# [4] = test system: Cells from Nasopharynx Carcinoma Explant; assay: In vitro short-term chemosensitivity assay (MTT); type: cell-based, human; conditions: Table 1, 24 h
# Procedure: The effects of L-aC on cells from 4 primitive epidermoid carcinomas of the larynx and 1 primitive undifferentiated carcinoma of the nasopharynx were tested.
# Tissue fragments from the tumour mass were mechanically dissociated in Hank's solutions adding an antibiotic and an antifungal to obtain a cell monosuspension free of agglomerates. The resulting suspension was centrifuged at 1200 rpm for 5 minutes and the pellet was resuspended in MEM culture medium supplemented with 10% of patient serum, to obtain a concentration of 10^5 cells/ml. Subsequently, 180 μl of the resulting suspension were dispensed in microplate wells and incubated under 5% CO2 atmosphere at 37° C. for 3 days. After that, the antitumor medicaments were added in the amount of 20 μl for each well, at a concentration of 0.1×, 1× and 10× the maximum serum concentrations that can usually be reached in clinical practice. 24 h after the beginning of the exposure to the antitumour medicament, 100 μl of MTT were added, and after 4 h, a further 150 μl of dimethylsulfoxide were added.
# The optical density was evaluated by a Uniscan microspectrophotometer with a […] wavelength filter. Cytotoxicity was evaluated as percentage of the optical density of the treated sample compared with the optical density of the control.
# Bleomycin (BLEC), […] (CDDP), 5-fluoruracil (5-FU), vincristine (VCR), epidoxorubicin (Epi-Dx) and methotrexate (MTX) were tested for comparison purposes.
# L-aC was tested at the following concentrations: 0.2-2-20 mg/ml.
# In vitro short-term chemosensitivity assay (according to Hill and coll.)
# (Cell Vitality Percentage After Exposure to the Antitumoral)—Raw Data
# (Cells from Nasopharynx Carcinoma Explant)
# [5] = 20 mg/ml, 48 hours after exposure
smiles,measurement,setting,value
"CC(=O)OC(CC(=O)[O-])C[N+](C)(C)C [L-aC, L-acetylcarnitine hydrochloride]",necroscopy finding,[1]; 6 animals sacrified at end of observation,no presence of the disease
same,animals died during further treatment,[1]; 47 Group 5 survivors treated a further 2 weeks,21
same,surviving animals (mortality curve),"[1]; Group 2, 50 mg lac i.p. daily day 8-14, day 0 transplant",50
same,surviving animals (mortality curve),"[1]; Group 2, 50 mg lac i.p. daily day 8-14, day 1",50
same,surviving animals (mortality curve),"[1]; Group 2, 50 mg lac i.p. daily day 8-14, day 2",50
same,surviving animals (mortality curve),"[1]; Group 2, 50 mg lac i.p. daily day 8-14, day 3",50
same,surviving animals (mortality curve),"[1]; Group 2, 50 mg lac i.p. daily day 8-14, day 4",50
same,surviving animals (mortality curve),"[1]; Group 2, 50 mg lac i.p. daily day 8-14, day 5",50
same,surviving animals (mortality curve),"[1]; Group 2, 50 mg lac i.p. daily day 8-14, day 6",50
same,surviving animals (mortality curve),"[1]; Group 2, 50 mg lac i.p. daily day 8-14, day 7",50
same,surviving animals (mortality curve),"[1]; Group 2, 50 mg lac i.p. daily day 8-14, day 8",42
same,surviving animals (mortality curve),"[1]; Group 2, 50 mg lac i.p. daily day 8-14, day 9",32
same,surviving animals (mortality curve),"[1]; Group 2, 50 mg lac i.p. daily day 8-14, day 10",21
same,surviving animals (mortality curve),"[1]; Group 2, 50 mg lac i.p. daily day 8-14, day 11",17
same,surviving animals (mortality curve),"[1]; Group 2, 50 mg lac i.p. daily day 8-14, day 12",12
same,surviving animals (mortality curve),"[1]; Group 2, 50 mg lac i.p. daily day 8-14, day 13",5
same,surviving animals (mortality curve),"[1]; Group 2, 50 mg lac i.p. daily day 8-14, day 14",0
same,day after inoculation by which all animals died,"[1]; Group 2, 50 rats, 50 mg L-aC i.p. daily day 8 to 14",≤ 14 days
same,surviving animals (mortality curve),"[1]; Group 3, 80 mg lac i.p. daily from day 8, day 0 transplant",25
same,surviving animals (mortality curve),"[1]; Group 3, 80 mg lac i.p. daily from day 8, day 1",25
same,surviving animals (mortality curve),"[1]; Group 3, 80 mg lac i.p. daily from day 8, day 2",25
same,surviving animals (mortality curve),"[1]; Group 3, 80 mg lac i.p. daily from day 8, day 3",25
same,surviving animals (mortality curve),"[1]; Group 3, 80 mg lac i.p. daily from day 8, day 4",25
same,surviving animals (mortality curve),"[1]; Group 3, 80 mg lac i.p. daily from day 8, day 5",25
same,surviving animals (mortality curve),"[1]; Group 3, 80 mg lac i.p. daily from day 8, day 6",25
same,surviving animals (mortality curve),"[1]; Group 3, 80 mg lac i.p. daily from day 8, day 7",25
same,surviving animals (mortality curve),"[1]; Group 3, 80 mg lac i.p. daily from day 8, day 8",12
same,surviving animals (mortality curve),"[1]; Group 3, 80 mg lac i.p. daily from day 8, day 9",5
same,surviving animals (mortality curve),"[1]; Group 3, 80 mg lac i.p. daily from day 8, day 10",0
same,time after 1st administration by which all animals died,"[1]; Group 3, 25 rats, 80 mg L-aC i.p.",≤ 72 h
same,day after inoculation by which all animals died,"[1]; Group 3, 25 rats, 80 mg L-aC i.p. daily from day 8",≤ 10 days
same,surviving animals (mortality curve),"[1]; Group 4, 120 mg lac i.p. daily from day 8, day 0 transplant",25
same,surviving animals (mortality curve),"[1]; Group 4, 120 mg lac i.p. daily from day 8, day 1",25
same,surviving animals (mortality curve),"[1]; Group 4, 120 mg lac i.p. daily from day 8, day 2",25
same,surviving animals (mortality curve),"[1]; Group 4, 120 mg lac i.p. daily from day 8, day 3",25
same,surviving animals (mortality curve),"[1]; Group 4, 120 mg lac i.p. daily from day 8, day 4",25
same,surviving animals (mortality curve),"[1]; Group 4, 120 mg lac i.p. daily from day 8, day 5",25
same,surviving animals (mortality curve),"[1]; Group 4, 120 mg lac i.p. daily from day 8, day 6",25
same,surviving animals (mortality curve),"[1]; Group 4, 120 mg lac i.p. daily from day 8, day 7",25
same,surviving animals (mortality curve),"[1]; Group 4, 120 mg lac i.p. daily from day 8, day 8",0
same,time from 1st administration by which all animals died,"[1]; Group 4, 25 rats, 120 mg L-aC i.p.",≤ 24 h
same,day after inoculation by which all animals died,"[1]; Group 4, 25 rats, 120 mg L-aC i.p. from day 8",≤ 8 days
same,surviving animals (mortality curve),"[1]; Group 5, 25 mg lac i.p. alternate days day 8-14, day 0 transplant",100
same,surviving animals (mortality curve),"[1]; Group 5, 25 mg lac i.p. alternate days day 8-14, day 1",100
same,surviving animals (mortality curve),"[1]; Group 5, 25 mg lac i.p. alternate days day 8-14, day 2",100
same,surviving animals (mortality curve),"[1]; Group 5, 25 mg lac i.p. alternate days day 8-14, day 3",100
same,surviving animals (mortality curve),"[1]; Group 5, 25 mg lac i.p. alternate days day 8-14, day 4",100
same,surviving animals (mortality curve),"[1]; Group 5, 25 mg lac i.p. alternate days day 8-14, day 5",100
same,surviving animals (mortality curve),"[1]; Group 5, 25 mg lac i.p. alternate days day 8-14, day 6",100
same,surviving animals (mortality curve),"[1]; Group 5, 25 mg lac i.p. alternate days day 8-14, day 7",96
same,surviving animals (mortality curve),"[1]; Group 5, 25 mg lac i.p. alternate days day 8-14, day 8",91
same,surviving animals (mortality curve),"[1]; Group 5, 25 mg lac i.p. alternate days day 8-14, day 9",83
same,surviving animals (mortality curve),"[1]; Group 5, 25 mg lac i.p. alternate days day 8-14, day 10",79
same,surviving animals (mortality curve),"[1]; Group 5, 25 mg lac i.p. alternate days day 8-14, day 11",61
same,surviving animals (mortality curve),"[1]; Group 5, 25 mg lac i.p. alternate days day 8-14, day 12",50
same,surviving animals (mortality curve),"[1]; Group 5, 25 mg lac i.p. alternate days day 8-14, day 13",48
same,surviving animals (mortality curve),"[1]; Group 5, 25 mg lac i.p. alternate days day 8-14, day 14",47
same,animals still alive,"[1]; Group 5, 100 rats, 25 mg L-aC i.p. alternate days, day 15 after inoculation",47
same,ascites amount in survivors,"[1]; Group 5, day 15 after inoculation",remarkable reduction of the ascites amount
same,general condition of survivors,"[1]; Group 5, day 28",good health
same,ascitic fluid in survivors,"[1]; Group 5, day 28 after inoculation",complete disappearance of the ascitic fluid
same,deaths during further observation,"[1]; Group 5 survivors, further 6 weeks",no deaths occurred
same,animals still alive,"[1]; of 47 Group 5 survivors, day 28 after inoculation",26
same,cytotoxicity (percentage of dead cells),[2]; [5],68%
same,induction of apoptosis (Giemsa staining),[2]; breast carcinoma line,remarkable
same,cytotoxicity (percentage of dead cells),[3]; [5],63%
same,induction of apoptosis (Giemsa staining),[3]; colon carcinoma line,remarkable
same,Cell Vitality Percentage After Exposure,[4]; 0.1x maximum clinical serum concentration (L-aC tested at 0.2-2-20 mg/ml),58%
same,Cell Vitality Percentage After Exposure,[4]; 1x maximum clinical serum concentration,4.8%
same,Cell Vitality Percentage After Exposure,[4]; 10x maximum clinical serum concentration,4%
